According to article PMC6328172, “5-HT2 receptor binding, functional activity and selectivity in N-benzyltryptamines” (PLoS ONE, 2019):
Several values for one entry are separate records, joined by “and”; a condition that tells them apart may be missing. Equal entries are not always repeated. Where two headings read alike, the source gives them in different places.

Tests used:
human 5-HT2A receptor [1] = molecular target: T1, human 5-HT2A receptor (Homo sapiens, UniProt P28223); assay: Competition binding to the human 5-HT2A receptor ([3H]ketanserin, CHO-5-HT2A membranes); conditions: for Selectivity 5-HT2A/2C (binding): from Ki values, Table 1; for Ki: human receptor, [3H]ketanserin displacement
T1 construct: expressed in transfected cells; host or cells: CHO (CHO-5-HT2A cell line)

human 5-HT2A receptor [2] = molecular target: T1, human 5-HT2A receptor; assay: Ca2+ mobilization in CHO h5-HT2A cells; type: cell-based; conditions: for Selectivity 5-HT2A/2C (functional): from EC50 values, Table 2; for Emax: relative efficacy, % of response to 5-HT
human 5-HT2C receptor [3] = molecular target: T2, human 5-HT2C receptor (Homo sapiens, UniProt P28335); assay: Ca2+ mobilization in HeLa h5-HT2C cells; type: cell-based
T2 construct: expressed in transfected cells; host or cells: HeLa (HeLa-5-HT2C cell line)
T2 sequence (P28335 33-458): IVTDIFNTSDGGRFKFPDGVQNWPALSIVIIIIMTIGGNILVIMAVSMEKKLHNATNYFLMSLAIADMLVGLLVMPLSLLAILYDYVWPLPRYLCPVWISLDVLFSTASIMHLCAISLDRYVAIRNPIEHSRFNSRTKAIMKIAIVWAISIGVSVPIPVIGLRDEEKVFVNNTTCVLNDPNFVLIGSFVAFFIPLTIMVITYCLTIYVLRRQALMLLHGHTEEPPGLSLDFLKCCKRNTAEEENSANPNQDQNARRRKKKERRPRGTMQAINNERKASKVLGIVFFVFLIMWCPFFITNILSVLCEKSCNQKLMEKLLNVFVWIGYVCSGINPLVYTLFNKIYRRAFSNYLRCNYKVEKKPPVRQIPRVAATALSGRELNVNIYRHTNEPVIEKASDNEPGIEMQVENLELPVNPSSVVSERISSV

human 5-HT2B receptor = human 5-HT2B receptor (Homo sapiens, UniProt P41595); assay: Competition binding to the human 5-HT2B receptor ([3H]LSD, CHO-5-HT2B membranes)
human 5-HT2C receptor [4] = molecular target: T2, human 5-HT2C receptor; assay: Competition binding to the human 5-HT2C receptor ([3H]mesulergine, HeLa-5-HT2C membranes); conditions: for Selectivity 5-HT2C/2A (binding, in parentheses): from Ki values, Table 1; for Ki: human receptor, [3H]mesulergine displacement, no unit in the table, nM, read-out: 5-HT2C Ki (in parentheses) (converted)
[5] = no unit in the table, nM, read-out: 5-HT2A Ki (in parentheses) (converted)
[6] = Ca2+ mobilization, no unit in the table, nM, read-out: 5-HT2A EC50 (in parentheses) (converted)
[7] = Ca2+ mobilization; no unit in the table, nM; read-out: 5-HT2C EC50 (in parentheses) (converted)
[8] = Ca2+ mobilization, pEC50 ± SEM, read-out: 5-HT2A pEC50 (converted)

human 5-HT2B receptor, sequence (P41595 whole entry): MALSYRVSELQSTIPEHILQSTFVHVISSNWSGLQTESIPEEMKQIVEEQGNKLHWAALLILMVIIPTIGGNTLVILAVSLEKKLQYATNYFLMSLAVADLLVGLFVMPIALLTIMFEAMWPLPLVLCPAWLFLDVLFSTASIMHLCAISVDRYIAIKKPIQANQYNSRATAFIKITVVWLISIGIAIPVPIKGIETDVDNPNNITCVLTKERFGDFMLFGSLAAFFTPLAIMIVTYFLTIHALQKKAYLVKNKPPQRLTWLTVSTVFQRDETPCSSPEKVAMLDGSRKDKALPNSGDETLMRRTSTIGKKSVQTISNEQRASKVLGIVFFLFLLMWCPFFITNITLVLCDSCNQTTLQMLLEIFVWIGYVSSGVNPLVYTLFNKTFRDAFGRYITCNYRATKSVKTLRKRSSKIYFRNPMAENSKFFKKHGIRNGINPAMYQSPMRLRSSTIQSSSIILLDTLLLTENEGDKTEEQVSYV
T1 sequence (P28223 whole entry): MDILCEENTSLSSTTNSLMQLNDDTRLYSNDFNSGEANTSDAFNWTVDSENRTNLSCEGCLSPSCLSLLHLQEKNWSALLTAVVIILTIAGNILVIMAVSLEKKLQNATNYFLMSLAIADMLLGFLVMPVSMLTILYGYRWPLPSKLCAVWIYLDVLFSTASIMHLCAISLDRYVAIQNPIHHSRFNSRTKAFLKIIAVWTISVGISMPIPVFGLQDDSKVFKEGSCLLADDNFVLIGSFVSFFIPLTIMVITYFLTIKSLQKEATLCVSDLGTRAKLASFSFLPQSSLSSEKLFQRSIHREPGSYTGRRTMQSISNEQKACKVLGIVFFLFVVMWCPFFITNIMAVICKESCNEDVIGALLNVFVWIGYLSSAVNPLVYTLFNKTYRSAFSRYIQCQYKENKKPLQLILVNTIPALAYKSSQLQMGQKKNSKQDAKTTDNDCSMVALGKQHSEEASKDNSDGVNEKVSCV

Row | Structure (SMILES) | Selectivity 5-HT2A/2C (binding) (human 5-HT2A receptor [1]) | Ki (human 5-HT2A receptor [1]; [5]) | EC50 (human 5-HT2A receptor [2]; [6]) | Selectivity 5-HT2A/2C (functional) (human 5-HT2A receptor [2]) | Emax (human 5-HT2A receptor [2]) | EC50 (human 5-HT2C receptor [3]; [7]) | Emax (human 5-HT2C receptor [3]; HeLa; read-out: 5-HT2C % Emax) | Selectivity 5-HT2C/2A (functional, in parentheses) (human 5-HT2C receptor [3]; from EC50 values, Table 2) | Ki (human 5-HT2B receptor) | Selectivity 5-HT2C/2A (binding, in parentheses) (human 5-HT2C receptor [4]) | Ki (human 5-HT2C receptor [4]) | functional activity at h5-HT2A receptor (in words) (human 5-HT2A receptor [2]; Ca2+ mobilization) | 5-HT2A pEC50 (human 5-HT2A receptor [2]; Ca2+ mobilization, pEC50 ± SEM) | EC50 (human 5-HT2A receptor [2]; [8]) | EC50 (human 5-HT2C receptor [3]; 5-HT2C EC50 (in parentheses), Ca2+ mobilization; no unit in the table, nM) | times less potent than lorcaserin (human 5-HT2C receptor [3]; 5-HT2C functional potency) | functional activity at h5-HT2C receptor (in words) (human 5-HT2C receptor [3]; Ca2+ mobilization) | Ki (human 5-HT2A receptor [1]; read-out: 5-HT2A pKi ± S.E.M. (converted)) | Emax (human 5-HT2C receptor [3]; HeLa, read-out: 5-HT2C % Emax) | times less potent than its 5-methoxytryptamine analog, h5-HT2A functional assay (human 5-HT2A receptor [2]; 3 vs 38, 5 vs 39)
1 | COc1ccc(F)cc1CNCCc1c[nH]c2ccccc12 [Compound 25, N-(5-Fluoro-2-methoxybenzyl)-[2-(1H-indol-3-yl)ethyl]amine] | 0.42 | 363 nM | 60.3 nM | 0.87 | 58 ± 1.95% | 52.5 nM | 110 ± 2.19% | 1.15 | 95.5 nM | 2.40 | 151 nM |  |  |  |  |  |  |  |  | 
2 | COc1ccc2[nH]cc(CCNCc3ccccc3)c2c1 [Compound 37, N-Benzyl-[2-(5-methoxy-1H-indol-3-yl)ethyl]amine] | 2.93 | 33.1 nM | 20.4 nM | 0.71 | 63.2 ± 1.44% | 14.4 nM | 113 ± 3.47% | 1.41 | 16.6 nM | 0.34 | 95.5 nM |  |  |  |  |  |  |  |  | 
3 | Cc1cccc(CNCCc2c[nH]c3ccccc23)c1 [Compound 8, N-(3-Methylbenzyl)-[2-(1H-indol-3-yl)ethyl]amine] | 5.10 | 14.4 nM | 61.7 nM | 0.48 | 33 ± 2.11% | 29.5 nM | 82.6 ± 2.11% | 2.09 | 17 nM | 0.20 | 74.1 nM |  |  |  |  |  |  |  |  | 
4 | Oc1c(Br)cccc1CNCCc1c[nH]c2ccccc12 [Compound 21, N-(3-Bromo-2-hydroxybenzyl)-[2-(1H-indol-3-yl)ethyl]amine] | 9.8 | 14.1 nM | 15800 nM | 0.0017 | 40.4 ± 6.23% | 27.5 nM | 98.8 ± 2.83% | 575 | 15.5 nM | 0.10 | 138 nM | extremely weak h5-HT2A partial agonist | 4.80 | 15800 nM | 27 nM | about 3 times | full agonist |  |  | 
5 | Oc1cc(Br)ccc1CNCCc1c[nH]c2ccccc12 [Compound 31, N-(4-Bromo-2-hydroxybenzyl)-[2-(1H-indol-3-yl)ethyl]amine] | 0.38 | 1550 nM | 24500 nM | 0.033 | 62.5 ± 10.8% | 813 nM | 74.8 ± 2.6% | 30.2 | 110 nM | 2.63 | 603 nM |  |  |  |  |  |  |  |  | 
6 | CCOc1ccc(CNCCc2c[nH]c3ccccc23)cc1 [Compound 15, N-(4-Ethoxybenzyl)-[2-(1H-indol-3-yl)ethyl]amine] | 2.66 | 275 nM | 363 nM | 0.032 | 36.7 ± 6.13% | 11.7 nM | 93.2 ± 3.26% | 30.9 | 269 nM | 0.36 | 741 nM |  |  |  |  |  |  |  |  | 
7 | Oc1ccc(F)cc1CNCCc1c[nH]c2ccccc12 [Compound 24, N-(5-Fluoro-2-hydroxybenzyl)-[2-(1H-indol-3-yl)ethyl]amine] | 0.14 | 759 nM | 75.9 nM | 0.35 | 71.6 ± 1.95% | 26.3 nM | 105 ± 2.19% | 2.88 | 77.6 nM | 7.15 | 105 nM |  |  |  |  |  |  | 794 nM |  | 
8 | Oc1cccc(CNCCc2c[nH]c3ccccc23)c1 [Compound 7, N-(3-Hydroxybenzyl)-[2-(1H-indol-3-yl)ethyl]amine] | 0.36 | 75.9 nM | 56.2 nM | 0.12 | 52.8 ± 4.63% | 6.76 nM | 96.3 ± 4.02% | 8.32 | 37.1 nM | 2.8 | 25.7 nM |  |  |  |  |  |  |  |  | 
9 | COc1ccc(Br)cc1CNCCc1c[nH]c2ccccc12 [Compound 27, N-(5-Bromo-2-methoxybenzyl)-[2-(1H-indol-3-yl)ethyl]amine] | 0.12 | 1120 nM | 17800 nM | 0.015 | 69 ± 3.51% | 263 nM | 111 ± 4.63% | 67.6 | 91.2 nM | 8.22 | 135 nM |  |  | 17800 nM |  |  |  |  |  | 
10 | COc1ccc(O)c(CNCCc2c[nH]c3ccc(OC)cc23)c1 [Compound 42, N-(2-Hydroxy-5-methoxybenzyl)-[2-(5-methoxy-1H-indol-3-yl)ethyl]amine] | 0.30 | 135 nM |  | 0.91 | 43.6 ± 0.9% |  |  | 1.1 | 20.4 nM | 3.31 | 40.7 nM |  |  |  |  |  |  |  | 89.4 ± 3.86% | 
11 | COc1ccccc1CNCCc1c[nH]c2ccccc12 [Compound 3, N-(2-Methoxybenzyl)-[2-(1H-indol-3-yl)ethyl]amine] | 2.56 | 89.1 nM | 1550 nM | 0.023 | 63 ± 1.95% | 35.5 nM | 94.2 ± 3.75% | 43.7 | 46.8 nM | 0.39 | 224 nM |  |  | 1550 nM |  |  |  |  |  | several hundred times less potent
12 | COc1ccc2[nH]cc(CCNCc3cc(F)ccc3O)c2c1 [Compound 43, N-(5-Fluoro-2-hydroxybenzyl)-[2-(5-methoxy-1H-indol-3-yl)ethyl]amine] | 9.66 | 3.98 nM | 1.4 nM and 1.38 nM | 2.63 | 83.3 ± 2.26% | 3.63 nM | 106 ± 3.05% | 0.38 | 8.91 nM | 0.10 | 39.8 nM |  |  |  |  |  |  |  |  | 
13 | Clc1ccc(CNCCc2c[nH]c3ccccc23)cc1 [Compound 16, N-(4-Chlorobenzyl)-[2-(1H-indol-3-yl)ethyl]amine] | 1.37 | 708 nM | 58.9 nM | 0.85 | 80 ± 4.54% | 50.1 nM | 98.3 ± 4.18% | 1.17 | 224 nM | 0.73 | 955 nM |  |  |  |  |  |  |  |  | 
14 | Brc1cccc(CNCCc2c[nH]c3ccccc23)c1 [Compound 11, N-(3-Bromobenzyl)-[2-(1H-indol-3-yl)ethyl]amine] |  | 8.13 nM | 58.9 nM | 0.93 | 32.6 ± 1.64% | 55 nM | 107 ± 2.78% | 1.07 | 21.9 nM |  | 75.9 nM |  |  |  |  |  |  |  |  | 
15 | Oc1cccc(Br)c1CNCCc1c[nH]c2ccccc12 [Compound 33, N-(6-Bromo-2-hydroxybenzyl)-[2-(1H-indol-3-yl)ethyl]amine] | 0.067 | 1660 nM | 5890 nM | 0.13 | 34.4 ± 1.37% | 794 nM | 104 ± 2.91% | 7.41 | 69.2 nM | 15 | 112 nM |  |  |  |  |  |  |  |  | 
16 | COc1ccc2[nH]cc(CCNCc3ccc(Br)cc3)c2c1 [Compound 41, N-(4-Bromobenzyl)-[2-(5-methoxy-1H-indol-3-yl)ethyl]amine] | 0.98 | 389 nM | 1860 nM | 0.071 | 60.5 ± 2.41% | 132 nM | 93.5 ± 3.05% | 14.1 | 155 nM | 1.02 | 380 nM |  |  |  |  |  |  |  |  | 
